Several values for one entry are separate records, joined by “and”; a condition that tells them apart may be missing. Equal entries are not always repeated.
Test system: influenza viruses
Parameters: species or system human (pediatric influenza patients)
Settings: human, in vivo

Compound	Virus isolation rate from specimens
CC(=O)N[C@H]1[C@H]([C@H](O)[C@H](O)CO)OC(C(=O)O)=C[C@@H]1N=C(N)N [zanamivir]	50% and 39%
CCOC(=O)C1=C[C@@H](OC(CC)CC)[C@H](NC(C)=O)[C@@H](N)C1 [oseltamivir]	68% and 69%

Reference: article PMC3062105 (Clinical infectious diseases : an official publication of …, 2011)
